# Measurements from ChEMBL document CHEMBL1133906, “Leishmanicidal activity of some stilbenoids and related heterocyclic compounds” (Bioorg Med Chem Lett, 2001).
# Tests used:
# Format in all cases: functional, organism-based
# Leishmania amazonensis = assay: In vitro inhibitory activity against Leishmania amazonensis (PH8)
# Leishmania braziliensis = assay: In vitro inhibitory activity against Leishmania braziliensis (M2903)
# Leishmania donovani = assay: In vitro inhibitory activity against Leishmania donovani (PP75)
IC50 (Leishmania amazonensis),IC50 (Leishmania braziliensis),IC50 (Leishmania donovani),SMILES
≥ 100 µg/mL,≥ 100 µg/mL,≥ 100 µg/mL,COC(=O)c1c(CCc2ccc(OC)cc2)cc(O)cc1OC
≥ 100 µg/mL,≥ 100 µg/mL,≥ 100 µg/mL,COc1ccc(CC(=O)c2ccccc2C(=O)N2CCCCC2)cc1OC
≥ 100 µg/mL,≥ 100 µg/mL,≥ 100 µg/mL,COc1ccc(Cc2nnc(O)c3ccccc23)cc1
≥ 100 µg/mL,≥ 100 µg/mL,≥ 100 µg/mL,COc1ccc(CC2(O)c3ccccc3C3=NCCCN32)cc1OC (stereo unspecified)
≥ 100 µg/mL,≥ 100 µg/mL,≥ 100 µg/mL,COc1ccc(Cc2nnc(O)c3ccccc23)cc1OC
≥ 100 µg/mL,≥ 100 µg/mL,≥ 100 µg/mL,Cn1nc(Cc2ccc3c(c2)OCO3)c2ccccc2c1=O
62 µg/mL,62 µg/mL,62 µg/mL,COc1ccc(CCc2cc(OC(C)=O)cc(OC)c2C(=O)O)cc1
≥ 100 µg/mL,≥ 100 µg/mL,≥ 100 µg/mL,Oc1nnc(Cc2ccc(Cl)cc2)c2ccccc12
≥ 100 µg/mL,≥ 100 µg/mL,≥ 100 µg/mL,COc1ccc(Cc2nn(C)c(=O)c3ccccc23)cc1
32 µg/mL,32 µg/mL,32 µg/mL,COc1ccc(CCc2cc(O)cc(OC)c2C(=O)O)cc1 [ISONOTHOLAENIC ACID]
≥ 100 µg/mL,≥ 100 µg/mL,≥ 100 µg/mL,COc1ccc(/C=C2\OC(=O)c3ccccc32)cc1OC
≥ 100 µg/mL,≥ 100 µg/mL,≥ 100 µg/mL,COc1cc(CC2(O)c3ccccc3C3=NCCN32)cc(OC)c1OC (stereo unspecified)
10 µg/mL,7 µg/mL,20 µg/mL,COc1cc(CC(=O)c2ccccc2C(=O)N2CCCCC2)cc(OC)c1OC
≥ 100 µg/mL,≥ 100 µg/mL,≥ 100 µg/mL,COc1ccc(C(=O)C(=O)c2ccccc2C(=O)N2CCCCC2)cc1OC
≥ 100 µg/mL,≥ 100 µg/mL,≥ 100 µg/mL,COc1ccc(Cc2nn(C)c(=O)c3ccccc23)cc1OC
≥ 100 µg/mL,≥ 100 µg/mL,≥ 100 µg/mL,COc1ccc(CC2(O)c3ccccc3C3=NCCN32)cc1OC (stereo unspecified)
≥ 100 µg/mL,≥ 100 µg/mL,≥ 100 µg/mL,Oc1nnc(Cc2ccc3c(c2)OCO3)c2ccccc12
28 µg/mL,52 µg/mL,52 µg/mL,COc1cc(C(=O)C(=O)c2ccccc2C(=O)N2CCCCC2)cc(OC)c1OC
≥ 100 µg/mL,≥ 100 µg/mL,≥ 100 µg/mL,COc1cc(Cc2nnc(O)c3ccccc23)cc(OC)c1OC
≥ 100 µg/mL,≥ 100 µg/mL,64 µg/mL,Cn1nc(Cc2ccc(Cl)cc2)c2ccccc2c1=O
≥ 100 µg/mL,≥ 100 µg/mL,≥ 100 µg/mL,O=c1[nH]nc(Cc2ccccc2)c2ccccc12
52 µg/mL,≥ 100 µg/mL,≥ 100 µg/mL,COc1cc(/C=C2\OC(=O)c3ccccc32)cc(OC)c1OC
≥ 100 µg/mL,≥ 100 µg/mL,≥ 100 µg/mL,COc1cc(Cc2nn(C)c(=O)c3ccccc23)cc(OC)c1OC
≥ 100 µg/mL,≥ 100 µg/mL,≥ 100 µg/mL,COc1cc(CC2(O)c3ccccc3C3=NCCCN32)cc(OC)c1OC (stereo unspecified)
≥ 100 µg/mL,≥ 100 µg/mL,≥ 100 µg/mL,Cn1nc(Cc2ccccc2)c2ccccc2c1=O

# Second part, the compound before the results:
SMILES,IC50 (Leishmania amazonensis),IC50 (Leishmania braziliensis),IC50 (Leishmania donovani)
OC1(Cc2ccc(Cl)cc2)c2ccccc2C2=NCCCN21 (stereo unspecified),≥ 100 µg/mL,≥ 100 µg/mL,≥ 100 µg/mL
O=C(Cc1ccccc1)c1ccccc1C(=O)N1CCCCC1,≥ 100 µg/mL,≥ 100 µg/mL,≥ 100 µg/mL
OC1(Cc2ccccc2)c2ccccc2C2=NCCN21 (stereo unspecified),60 µg/mL,60 µg/mL,60 µg/mL
O=C(Cc1ccc2c(c1)OCO2)c1ccccc1C(=O)N1CCCCC1,≥ 100 µg/mL,≥ 100 µg/mL,≥ 100 µg/mL
COc1ccc(CC2(O)c3ccccc3C3=NCCCN32)cc1 (stereo unspecified),≥ 100 µg/mL,≥ 100 µg/mL,≥ 100 µg/mL
COc1ccc(CC(=O)c2ccccc2C(=O)N2CCCCC2)cc1,≥ 100 µg/mL,≥ 100 µg/mL,≥ 100 µg/mL
CCN(CC)C(=O)c1ccccc1C(=O)C(=O)c1ccc(OC)cc1,75 µg/mL,75 µg/mL,75 µg/mL
OC1(Cc2ccc(Cl)cc2)c2ccccc2C2=NCCN21 (stereo unspecified),≥ 100 µg/mL,≥ 100 µg/mL,≥ 100 µg/mL
COc1ccc(CCc2cc(O)cc(OC)c2C(=O)N2CCCCC2)cc1,7 µg/mL,10 µg/mL,7 µg/mL
N=C(N)c1ccc(OCCCCCOc2ccc(C(=N)N)cc2)cc1 [PENTAMIDINE],1.3 µg/mL,1.3 µg/mL,1.3 µg/mL
OC1(Cc2ccc3c(c2)OCO3)c2ccccc2C2=NCCCN21 (stereo unspecified),≥ 100 µg/mL,≥ 100 µg/mL,≥ 100 µg/mL
COc1ccc(CC2(O)c3ccccc3C3=NCCN32)cc1 (stereo unspecified),≥ 100 µg/mL,≥ 100 µg/mL,≥ 100 µg/mL
COc1ccc(/C=C2\OC(=O)c3ccccc32)cc1,≥ 100 µg/mL,≥ 100 µg/mL,≥ 100 µg/mL
COc1ccc(C(=O)C(=O)c2ccccc2C(=O)N2CCCCC2)cc1,≥ 100 µg/mL,80 µg/mL,80 µg/mL
O=C1O/C(=C\c2ccccc2)c2ccccc21,45 µg/mL,45 µg/mL,45 µg/mL
O=C(C(=O)c1ccccc1C(=O)N1CCCCC1)c1ccc2c(c1)OCO2,≥ 100 µg/mL,≥ 100 µg/mL,≥ 100 µg/mL
COc1ccc(/C=C2/c3ccccc3C(=O)N2NC(C)(C)C)cc1,≥ 100 µg/mL,≥ 100 µg/mL,≥ 100 µg/mL
OC1(Cc2ccc3c(c2)OCO3)c2ccccc2C2=NCCN21 (stereo unspecified),≥ 100 µg/mL,≥ 100 µg/mL,≥ 100 µg/mL
O=C1O/C(=C\c2ccc3c(c2)OCO3)c2ccccc21,≥ 100 µg/mL,≥ 100 µg/mL,≥ 100 µg/mL
COc1ccc(CC2(O)c3ccccc3C(=O)N2NC(C)(C)C)cc1 (stereo unspecified),≥ 100 µg/mL,≥ 100 µg/mL,≥ 100 µg/mL
O=C(C(=O)c1ccccc1C(=O)N1CCCCC1)c1ccc(Cl)cc1,25 µg/mL,52 µg/mL,28 µg/mL
OC1(Cc2ccccc2)c2ccccc2C2=NCCCN21 (stereo unspecified),45 µg/mL,45 µg/mL,45 µg/mL
COc1ccc(CCc2cc(O)cc(OC)c2)cc1,≥ 100 µg/mL,≥ 100 µg/mL,≥ 100 µg/mL
O=C(C(=O)c1ccccc1C(=O)N1CCCCC1)c1ccccc1,75 µg/mL,75 µg/mL,75 µg/mL
COc1ccc(C(=O)C(=O)c2ccccc2C(=O)N2CCCC2)cc1,≥ 100 µg/mL,≥ 100 µg/mL,≥ 100 µg/mL
O=C(Cc1ccc(Cl)cc1)c1ccccc1C(=O)N1CCCCC1,≥ 100 µg/mL,≥ 100 µg/mL,≥ 100 µg/mL
O=C1O/C(=C\c2ccc(Cl)cc2)c2ccccc21,≥ 100 µg/mL,≥ 100 µg/mL,52 µg/mL
